# Results: US4751305A, “2-heterocyclobenzo[B][1,6]naphthyridines as inhibitors of interleukin” (American Home Products Corporation, priority 1987, dated 1988)
# System: IL 1-induced release of neutral protease from rabbit articular chondrocytes
# Assay: inhibition of the IL 1-induced release of neutral protease from rabbit articular chondrocytes (azocoll neutral protease assay)
# Type: cell-based
# Settings: Oryctolagus cuniculus, Chondrocyte, compound 10 min before purified human IL 1, 24 h, read-out: % Inhibition (I.S.D.)
# Description: The ability of the compounds of the inventions to inhibit interleukin 1 is measured by the ability of the test compounds to inhibit the IL 1-induced release of neutral protease from rabbit articular chondrocytes.
# This assay is carried out as follows:
# Isolation of rabbit chondrocytes:
# Male New Zealand White rabbits are anesthetized with 50 mg/kg of ketamine (i.m.) and killed by an intracardiac injection of 3 mls. of Nembutal. The knee joints of both legs are resected and the articular surfaces are exposed. Cartilage slices are obtained using a scalpel and are placed in a tissue culture dish (100 mm diameter) containing 10 mls of Hank's balanced salt solution (HBSS). The chondrocytes within the cartilage slices are then liberated by a series of enzyme digestions. The slices are incubated for 10 min. at 37° C. in 0.05% hyaluronidase (Sigma H-3884), rinsed with HBSS and incubated with 0.2% trypsin (Sigma T-2395) for 10 min. at 37° C. The slices are rinsed again and incubated for 10 mins. at 37° C. with 1.2% collagenase (Sigma C-5138). The slices are then rinsed again with HBSS and resuspended in 10 ml of Ham's F-12 medium containing 10% fetal bovine calf serum (FCS) and 0.2% collagenase and incubated overnight at 37° C. in a 5% CO2 incubator. The next day, the medium containing the digested cartilage fragments and liberated chondrocytes is transferred to a 15 ml centrifuge tube and the cells are collected by centrifugation and washed twice and resuspended in Ham's F-12 medium. The cells are then plated into 24-well tissue culture plates (2×10^5 cells/well) and incubated at 37° C. until confluent (usually 4-6 days).
# Stimulation of chondrocytes and drug treatment:
# The confluent chondrocytes are rinsed twice with serum-free Ham's F-12 medium and 1 ml is added to each well. Fifty $1 of purified human IL 1(100 Units/ml; Genzyme Corporation, Boston, MA) is then added to stimulate these cells to secrete neutral protease. To measure drug effects, the cells are treated with test compound 10 min. prior to addition of IL 1. The standard screening dose is 10 $M. Twenty-four hours after IL 1 stimulation, supernatant fluids are collected and assayed for neutral protease activity.
# The neutral protease activity of chondrocyte supernatant fluids is determined by their ability to degrade an insoluble protease substrate, azocoll (Sigma). Supernatants are treated for 10 min. at room temperature with 350 $M p-aminophenyl-murcuric acetate to activate the latent enzyme. Three hundred $1 of supernatant is then mixed with 500 $1 of a 20 mg/ml suspension of azocoll and incubated at 37° C. for 18-24 hrs. with gentle rocking. The mixtures are centrifuged and the amount of substrate hydrolyzed is determined by measuring the absorbance of the supernatant at 520 nm.
# Drug effects are calculated as the % change in enzyme activity (absorbance)by supernatants from drug-treated chondrocytes relative to enzyme activity of supernatants from vehicle-treated chondrocytes as follows: [formula]
SMILES,inhibition at 10 µM [%],inhibition at 5 µM (dose 5 μM) [%]
"Clc1ccc2c(Cl)c3c(nc2c1)CCN(c1ncccn1)C3 [Example 1, 7,10-Dichloro-1,2,3,4-tetrahydro-2-(2-pyrimidinyl)benzo[b][1,6]naphthyridine]",34 ± 8,
"Clc1ccc2c(Cl)c3c(nc2c1)CCN(c1ccc2ccccc2n1)C3 [Example 3, 7,10-Dichloro-1,2,3,4-tetrahydro-2-(2-quinolinyl)benzo[b][1,6]naphthyridine]",≤ 20,
"N#Cc1ccc(N2CCc3nc4cc(Cl)ccc4c(Cl)c3C2)nc1 [Example 4, 6-(7,10-Dichloro-3,4-dihydrobenzo[b][1,6]naphthyridin-2(1H)-yl)-3-pyridine-carbonitrile, hemihydrate]",94,83
"Clc1ccc2c(NNc3ccccc3)c3c(nc2c1)CCN(c1cnccn1)C3 [Example 5, 7-Chloro-1,2,3,4-tetrahydro-10-(2-phenylhydrazino)-2-(2-pyrazinyl)benzo[b][1,6]naphthyridine]",85 ± 5,
